Laboratory results published in US8227604B2, “Hybrid 2-aminotetralin and aryl-substituted piperazine compounds and their use in altering CNS activity” (Wayne State University, priority 2001, dated 2012).

Columns and labels:
5HT2A receptor = molecular target: T1, 5HT2A receptor (Homo sapiens, UniProt P28223); assay: Binding affinity at cloned human 5HT2A receptor, [3H]Ketanserin
T1 construct: expressed in transfected cells

D2L receptor = molecular target: T2, D2L receptor (Homo sapiens, UniProt P14416); assay: Inhibition constants for binding to cloned D2L receptor expressed in HEK cells, [3H]spiperone
T2 construct: expressed in transfected cells; host or cells: HEK cells
Description: (§1) Inhibition constants for binding to cloned D2L and D3 receptors expressed in HEK cells by displacing [^3H] spiperone were measured for several compounds.

5HT1A receptor = molecular target: T3, 5HT1A receptor (Homo sapiens, UniProt P08908); assay: Binding affinity at cloned human 5HT1A receptor, [3H]8-OH-DPAT (HA7 cells)
T3 construct: expressed in transfected cells; host or cells: HA7 cells
T3 sequence (P08908 1-422): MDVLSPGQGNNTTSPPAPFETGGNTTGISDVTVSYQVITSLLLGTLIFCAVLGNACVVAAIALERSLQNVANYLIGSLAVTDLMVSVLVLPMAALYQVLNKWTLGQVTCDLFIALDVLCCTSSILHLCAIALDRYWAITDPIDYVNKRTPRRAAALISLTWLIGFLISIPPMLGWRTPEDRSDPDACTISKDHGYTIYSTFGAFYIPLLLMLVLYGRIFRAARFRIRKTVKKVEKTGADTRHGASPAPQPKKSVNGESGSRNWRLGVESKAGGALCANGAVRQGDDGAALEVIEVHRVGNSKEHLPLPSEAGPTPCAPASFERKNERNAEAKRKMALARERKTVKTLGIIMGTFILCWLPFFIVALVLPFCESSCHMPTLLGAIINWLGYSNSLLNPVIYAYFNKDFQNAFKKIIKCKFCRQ
Description: HA7 cells (human receptor) are grown to confluence in DMEM containing 10% fetal calf serum, 0.05% penicillin-streptomycin (pen-strep), and […] of G418. The cells are scraped from the 100 by 20 mm plates and centrifuged at 500·G for 5 min. The pellet is homogenized in 50 mM Tris-HCl, pH 7.7, with a polytron, centrifuged at 27,000·G and resuspended at 10 mg protein/ml in the same buffer. The homogenate is then stored at −70° C. in 1-ml aliquots.
The thawed cells are washed once and resuspended at 10 mg protein/80 ml in 25 mM Tris-HCl containing 100 μM of ascorbic acid and 10 mM of nialamide at pH 7.4. The assay is performed in triplicate in a 96-well plate. To 100 μl of [^3H]8-OH-DPAT (0.5 nM final conc), […] of test compound or buffer and 0.8 ml of cell homogenate (0.1 mg protein/well) is added to each well by a Tomtec Quadra 96. Nonspecific binding is defined using 1 μM dihydroergotamine. The plates are incubated at 25° C. for 60 min, then filtered. The incubation is terminated by rapid filtration through glass fiber filter paper on a Tomtec cell harvester. The filters are washed four times with ice-cold 50 mM Tris-HCl, pH 7.7, dried overnight, bagged with 10 ml scintillation cocktail before counting for 2 min. on a Wallac Betaplate 1205 liquid scintillation counter.

5HT2C receptor = molecular target: T4, 5HT2C receptor (Homo sapiens, UniProt P28335); assay: Binding affinity at cloned human 5HT2C receptor, [3H]Mesulergine
T4 construct: expressed in transfected cells
T4 sequence (P28335 33-458): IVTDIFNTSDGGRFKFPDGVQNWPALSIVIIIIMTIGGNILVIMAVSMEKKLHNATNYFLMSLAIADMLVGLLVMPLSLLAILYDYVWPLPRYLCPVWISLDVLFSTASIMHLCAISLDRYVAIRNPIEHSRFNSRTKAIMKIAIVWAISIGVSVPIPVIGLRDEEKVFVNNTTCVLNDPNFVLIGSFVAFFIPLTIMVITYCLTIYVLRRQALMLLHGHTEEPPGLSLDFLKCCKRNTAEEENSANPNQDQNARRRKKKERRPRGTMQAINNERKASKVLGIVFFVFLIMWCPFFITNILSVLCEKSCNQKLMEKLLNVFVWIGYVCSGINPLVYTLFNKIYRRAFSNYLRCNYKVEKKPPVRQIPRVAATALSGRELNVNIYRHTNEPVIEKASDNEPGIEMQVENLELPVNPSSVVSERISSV

D3 receptor = D3 receptor (Homo sapiens, UniProt P35462); assay: Inhibition constants for binding to cloned D3 receptor expressed in HEK cells, [3H]spiperone; details: D3 expressed in HEK cells
Description: as §1

T2 sequence (P14416 whole entry): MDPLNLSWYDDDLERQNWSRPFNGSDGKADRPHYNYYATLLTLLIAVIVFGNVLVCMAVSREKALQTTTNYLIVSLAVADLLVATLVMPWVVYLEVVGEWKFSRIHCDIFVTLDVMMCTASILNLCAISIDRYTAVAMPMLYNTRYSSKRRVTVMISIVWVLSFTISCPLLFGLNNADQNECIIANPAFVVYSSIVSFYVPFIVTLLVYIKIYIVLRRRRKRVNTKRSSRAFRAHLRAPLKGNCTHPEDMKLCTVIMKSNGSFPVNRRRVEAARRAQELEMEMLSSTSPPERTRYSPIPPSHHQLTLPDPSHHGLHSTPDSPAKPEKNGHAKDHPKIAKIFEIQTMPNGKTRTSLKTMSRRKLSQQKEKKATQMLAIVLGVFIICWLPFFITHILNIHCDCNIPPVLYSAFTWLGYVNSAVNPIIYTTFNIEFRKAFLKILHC
T1 sequence (P28223 whole entry): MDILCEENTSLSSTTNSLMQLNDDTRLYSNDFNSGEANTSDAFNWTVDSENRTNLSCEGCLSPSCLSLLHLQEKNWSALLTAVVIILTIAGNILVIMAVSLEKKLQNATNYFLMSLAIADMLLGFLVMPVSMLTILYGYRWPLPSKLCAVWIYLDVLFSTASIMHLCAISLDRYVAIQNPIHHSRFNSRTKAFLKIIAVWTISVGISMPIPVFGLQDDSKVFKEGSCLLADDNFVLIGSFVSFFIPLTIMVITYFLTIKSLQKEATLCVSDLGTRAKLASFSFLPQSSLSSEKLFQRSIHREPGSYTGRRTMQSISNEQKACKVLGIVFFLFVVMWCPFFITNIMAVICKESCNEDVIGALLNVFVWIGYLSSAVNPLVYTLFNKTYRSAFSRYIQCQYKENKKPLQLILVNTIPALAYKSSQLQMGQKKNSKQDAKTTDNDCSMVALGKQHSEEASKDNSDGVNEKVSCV
Sequence of D3 receptor (P35462 whole entry): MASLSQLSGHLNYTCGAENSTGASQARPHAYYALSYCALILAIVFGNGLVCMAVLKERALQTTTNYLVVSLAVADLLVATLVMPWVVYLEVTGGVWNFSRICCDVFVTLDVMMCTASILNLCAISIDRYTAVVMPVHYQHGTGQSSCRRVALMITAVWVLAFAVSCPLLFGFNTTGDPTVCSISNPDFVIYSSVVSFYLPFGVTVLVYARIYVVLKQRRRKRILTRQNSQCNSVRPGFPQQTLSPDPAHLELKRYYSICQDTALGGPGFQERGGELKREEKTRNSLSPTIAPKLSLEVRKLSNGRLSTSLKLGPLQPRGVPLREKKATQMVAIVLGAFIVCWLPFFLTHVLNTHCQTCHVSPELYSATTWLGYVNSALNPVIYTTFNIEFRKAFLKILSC

Ki (5HT2A receptor) | Ki (D2L receptor) | Ki (5HT1A receptor) | Ki (5HT2C receptor) | melting point | Ki (D3 receptor) | Compound
1230 ± 217 nM | 782 ± 42 nM | 171 ± 32.2 nM | > 10000 nM | 70 to 71 °C | – | O=C(NCCCCN(CCCCN1CCN(c2ccccc2)CC1)C1CCc2ccc(O)cc2C1)c1ccccc1 (stereo not drawn) [Compound 10a, 7-Hydroxyl-2-[N-(4-benzoylaminobutyl)-(N-(4-phenylpiperazin-1-yl)-butyl)amino]tetralin]
701 ± 16.8 nM | 622 ± 102 nM | 88.31 ± 0.4 nM | > 10000 nM | – | – | N#CCCCN(CCCCN1CCN(c2ccccc2)CC1)C1CCc2ccc(O)cc2C1 (stereo not drawn) [Compound 8, 7-Hydroxy-2-[N-butyonitrile-(N-(4-phenylpiperazin-1-yl)-butyl)amino]tetralin]
1780 ± 614 nM | 114 ± 8 nM | 18.5 ± 2.46 nM | > 10000 nM | – | 3.79 ± 0.4 nM | CCCN(CCCCN1CCN(c2ccccc2)CC1)C1CCc2ccc(O)cc2C1 (stereo not drawn) [Compound 15b, 7-Hydroxyl-2-[N-propyl-(N-(4-phenylpiperazin-1-yl)-butyl)amino]tetralin]
287 ± 50.2 nM | 354 ± 2 nM | 164 ± 27.5 nM | > 10000 nM | – | – | O=C(NCCN(CCCCN1CCN(c2ccccc2)CC1)C1CCc2ccc(O)cc2C1)c1ccccc1 (stereo not drawn) [Compound 10b, 7-Hydroxy-2-[N-(2-benzoylamino)ethyl-(N-(4-phenylpiperazin-1-yl)-butyl)amino]tetralin]
